Literature values as cited in publication PMC4959752, “Pharmacokinetics in Wistar Rats of 5-[(4-Carboxybutanoyl)Amino]-2-Hydroxybenzoic Acid: A Novel Synthetic Derivative of 5-Aminosalicylic Acid (5-ASA) with Possible Anti-Inflammatory Activity” (PLoS ONE, 2016).

Tests used:
[1] = test system: plasma protein; conditions: comparison value; cited from earlier work
[2] = literature value; cited from earlier work

Row | SMILES | protein binding [1] [%] | plasma half-life [2] [min]
1 | Nc1ccc(O)c(C(=O)O)c1 [5-ASA, 5-aminosalicylic acid] | 40 | –
2 | CC(=O)Oc1ccccc1C(=O)O [aspirin] | – | 15
